# Laboratory results taken from ChEMBL document CHEMBL1201862, “PubChem BioAssay data set” (2004).
# Activity calls are given as the source filed them.
# Experiments:
# [1] = NIH:OVCAR-3 ovarian cancer cell cytotoxicity, dose response, PAX8 inhibitor project, plate reader, dry powder samples (AID 743044); type: functional, cell-based
# [2] = PAX2 cell-based inhibition, dose response, selectivity assay for PAX8 inhibitor project, plate reader, dry powder samples (AID 743048); type: functional;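 further: HEK293 cells carrying a WT1 promoter luciferase reporter driven by expressed Pax2; potency is for inhibition of Pax2 driven reporter signal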
# Paired box protein Pax-8 = Paired box protein Pax-8 (Homo sapiens, UniProt Q06710); experiment: inhibitors of PAX8-driven TPO luciferase reporter, dose response, RMG-I cells, cherry-pick (AID 687027); type: functional, cell-based;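 further: luciferase reporter driven by Pax8 target thyroperoxidase promoter measured by SteadyGlo luminescence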
# Chain of Paired box protein Pax-8 (Q06710 whole entry): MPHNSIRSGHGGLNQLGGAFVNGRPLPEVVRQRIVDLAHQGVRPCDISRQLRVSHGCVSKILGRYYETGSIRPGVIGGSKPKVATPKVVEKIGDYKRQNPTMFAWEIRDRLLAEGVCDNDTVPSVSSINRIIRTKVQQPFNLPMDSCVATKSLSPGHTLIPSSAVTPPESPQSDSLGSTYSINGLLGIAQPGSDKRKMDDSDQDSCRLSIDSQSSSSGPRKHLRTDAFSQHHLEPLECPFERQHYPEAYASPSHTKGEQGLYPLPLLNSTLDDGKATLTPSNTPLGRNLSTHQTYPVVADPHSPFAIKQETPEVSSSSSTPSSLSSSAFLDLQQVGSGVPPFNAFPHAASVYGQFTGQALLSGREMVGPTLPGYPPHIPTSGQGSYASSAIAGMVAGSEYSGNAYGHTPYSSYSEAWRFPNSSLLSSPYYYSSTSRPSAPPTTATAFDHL
# [3] = PAX5 activity inhibitors, dose response, selectivity assay for PAX8 inhibitor project, cell-based, plate reader, dry powder samples (AID 743047); type: functional;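 further: HEK293 cells carrying a Pax5 driven CD19 promoter luciferase reporter; potency of inhibitors that lower reporter luminescence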
# [4] = cytotoxicity in OV-90 ovarian cancer cells, dose response, PAX8 inhibitor project, cell-based, plate reader, dry powder, SA8 (AID 743149); type: functional
# [5] = cytotoxicity dependent on PAX8, dose response, cell-based, plate reader, dry powder (AID 743049); type: functional
# [6] = cytotoxicity in COV434 cells, dose response, cytotoxicity control for PAX8 inhibitor project, cell-based, plate reader, dry powder, SA7 (AID 743145); type: functional
# [7] = cytotoxicity in COV362 ovarian cancer cells, dose response, cytotoxicity control for PAX8 inhibitor project, cell-based, plate reader, dry powder, SA12 (AID 743144); type: functional
# [8] = cytotoxicity in OVCAR8 ovarian cancer cells, dose response, PAX8 project, cell-based, plate reader, dry powder samples (AID 743197); type: functional; conditions: OVCAR-8
# [9] = A2780 ovarian cancer cell cytotoxicity, dose response, cytotoxicity control, plate reader, dry powder samples (AID 743046); type: functional, cell-based
# [10] = non-specific cell cytotoxicity, dose response, cytotoxicity control for PAX8 inhibitor project, plate reader, dry powder samples (AID 743021); type: functional, cell-based
# [11] = IGROV1 ovarian cancer cell cytotoxicity, dose response, PAX8 inhibitor project, plate reader, dry powder samples (AID 743043); type: functional, cell-based; conditions: IGROV-1
# [12] = target: Endoplasmic reticulum aminopeptidase 1 (Homo sapiens, UniProt Q9NZ08); experiment: ERAP1 aminopeptidase inhibitors, dose response, biochemical, cherry-pick, set 2, plate reader (AID 743314)
# Chain of Endoplasmic reticulum aminopeptidase 1 (Q9NZ08 whole entry, the tested form may be a part): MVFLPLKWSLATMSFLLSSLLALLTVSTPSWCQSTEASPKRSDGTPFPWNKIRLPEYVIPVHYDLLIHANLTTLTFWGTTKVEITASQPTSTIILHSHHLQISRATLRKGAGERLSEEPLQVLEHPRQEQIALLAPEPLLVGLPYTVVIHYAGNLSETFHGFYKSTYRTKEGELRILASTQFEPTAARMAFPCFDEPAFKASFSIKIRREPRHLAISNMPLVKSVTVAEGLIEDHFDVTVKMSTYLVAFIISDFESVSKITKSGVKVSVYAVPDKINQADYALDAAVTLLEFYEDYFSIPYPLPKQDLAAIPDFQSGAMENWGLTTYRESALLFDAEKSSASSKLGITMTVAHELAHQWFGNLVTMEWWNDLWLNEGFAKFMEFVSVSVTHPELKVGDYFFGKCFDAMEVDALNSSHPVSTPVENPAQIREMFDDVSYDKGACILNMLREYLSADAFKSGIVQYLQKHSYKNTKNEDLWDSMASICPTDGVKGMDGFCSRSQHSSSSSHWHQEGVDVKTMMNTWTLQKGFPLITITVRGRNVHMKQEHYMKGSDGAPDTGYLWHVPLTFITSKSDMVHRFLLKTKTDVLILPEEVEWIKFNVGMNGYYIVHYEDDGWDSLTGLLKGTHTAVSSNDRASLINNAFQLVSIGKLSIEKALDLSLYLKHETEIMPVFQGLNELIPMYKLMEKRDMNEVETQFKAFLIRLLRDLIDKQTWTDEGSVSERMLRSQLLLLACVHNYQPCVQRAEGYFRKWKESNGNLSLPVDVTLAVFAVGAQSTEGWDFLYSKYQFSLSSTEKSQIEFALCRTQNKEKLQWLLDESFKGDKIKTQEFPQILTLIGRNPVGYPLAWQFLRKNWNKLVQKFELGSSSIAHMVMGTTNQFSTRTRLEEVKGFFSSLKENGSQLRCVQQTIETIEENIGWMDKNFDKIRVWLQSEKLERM
# [13] = target: T1, Disintegrin and metalloproteinase domain-containing protein 17 (Homo sapiens, UniProt P78536); experiment: exosite inhibitors of ADAM17, dose response, biochemical (AID 743260)
# T1 sequence (P78536 whole entry, the tested form may be a part): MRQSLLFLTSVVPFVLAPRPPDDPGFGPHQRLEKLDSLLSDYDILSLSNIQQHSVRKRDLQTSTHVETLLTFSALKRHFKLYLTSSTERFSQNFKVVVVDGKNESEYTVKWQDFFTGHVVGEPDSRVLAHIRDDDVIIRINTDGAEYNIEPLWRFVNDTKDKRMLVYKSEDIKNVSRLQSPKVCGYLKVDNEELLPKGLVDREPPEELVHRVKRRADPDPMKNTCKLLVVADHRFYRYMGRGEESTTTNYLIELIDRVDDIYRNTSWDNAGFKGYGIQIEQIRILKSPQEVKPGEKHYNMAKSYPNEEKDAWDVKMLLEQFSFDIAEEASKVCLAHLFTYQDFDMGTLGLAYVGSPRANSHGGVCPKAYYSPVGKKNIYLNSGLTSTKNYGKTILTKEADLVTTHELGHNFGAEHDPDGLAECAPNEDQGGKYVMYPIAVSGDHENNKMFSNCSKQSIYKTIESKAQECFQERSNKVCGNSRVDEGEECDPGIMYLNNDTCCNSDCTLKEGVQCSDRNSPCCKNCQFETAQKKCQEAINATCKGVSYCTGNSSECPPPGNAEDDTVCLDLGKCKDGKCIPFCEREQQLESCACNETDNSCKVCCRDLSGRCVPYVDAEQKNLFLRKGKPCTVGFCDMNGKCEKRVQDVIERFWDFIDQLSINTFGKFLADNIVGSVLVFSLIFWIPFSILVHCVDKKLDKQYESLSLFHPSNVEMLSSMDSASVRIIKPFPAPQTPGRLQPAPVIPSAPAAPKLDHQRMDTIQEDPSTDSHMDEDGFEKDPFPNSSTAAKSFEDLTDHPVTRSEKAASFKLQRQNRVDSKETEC
# [14] = ADAM10 protease inhibitors, dose response, selectivity assay for ADAM17 exosite inhibitor project, biochemical, FRET peptide substrate, recombinant human ADAM10 (AID 743259);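 further: ADAM10 enzyme cleaving a FRET peptide substrate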
# [15] = inhibitors of fibronectin matrix deposition, dose response, AH1F cells, Alexa488-FN fluorescence, cherry-picks (AID 1035475); type: functional, cell-based
# [16] = HEK293 cell cytotoxicity, dose response, cytotoxicity control, cherry-picks, set 5 (AID 1053117); type: functional, cell-based
# [17] = reduction of Shn3 3'UTR firefly luciferase signal, dose response, Schnurri-3 inhibitor project, cell-based, Clone20 osteoblasts, cherry-pick, set 2 (AID 720490); type: functional;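 further: actives lower the luminescence signal as inhibitors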
# [18] = HepG2 cell cytotoxicity, dose response, cytotoxicity control for Shn3 inhibitor project, CellTiter-Glo, cherry-picked (AID 624134); type: functional, cell-based
# [19] = control 3'UTR Renilla luciferase suppression, dose response, counter-screen for Shn3 inhibitor project, cell-based, Clone20-Shn3RL, cherry-picked (AID 624133); type: functional
# [20] = Shn3 3'UTR reporter inhibitors, dose response, cell-based, Clone20 osteoblasts, firefly luciferase, cherry-picked (AID 624132); type: functional;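 further: firefly luciferase luminescence from reporter carrying the Shn3 3'UTR in osteoblasts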
# [21] = target: T1, Disintegrin and metalloproteinase domain-containing protein 17; experiment: ADAM17 protease inhibitors, dose response, counter-screen for ADAM10 exosite inhibitor project, biochemical, quenched FRET substrate (AID 743253)
# [22] = ADAM10 inhibitors, peptide cleavage, dose response, biochemical, QFRET (AID 743254);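 further: ADAM10 enzyme with the DM2 quenched FRET peptide as substrate; EDANS fluorescence gain as the protease cuts the substrate; inhibitor potency against ADAM10 proteolytic activity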
# [23] = HepG2 cell cytotoxicity, dose response, cytotoxicity control, ATP luminescence, cherry-pick, activator set 2 (AID 1053143); type: functional, cell-based
# [24] = HepG2 cell cytotoxicity, dose response, cytotoxicity control, cherry-picked samples (AID 1159577); type: functional, cell-based
# [25] = P. falciparum Dd2 growth inhibitors, dose response, SYBR Green, cherry-picked samples (AID 1159567); type: functional, cell-based
# [26] = P. falciparum 3D7-ScDHODH growth inhibitors, dose response, SYBR Green, dry powder samples (AID 1159570); type: functional, cell-based;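 further: parasite growth measured after 72 hours of compound exposure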
# [27] = P. falciparum Dd2 growth inhibitors, dose response, SYBR Green, dry powder samples (AID 1159566); type: functional, cell-based;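 further: potency for growth inhibition with lower SYBR green DNA signal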
# [28] = HepG2 cell cytotoxicity, dose response, cytotoxicity control, plate reader, dry powder samples (AID 1159569); type: functional, cell-based;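 further: inhibitor potency with signal falling toward the positive control level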
# [29] = P. falciparum ATP4 D1247Y mutant growth inhibitors, dose response, NITD609-resistant line, SYBR Green, dry powder (AID 1159571); type: functional, cell-based;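 further: parasites synchronized at ring stage by sorbitol before testing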
structure (smiles),measurement,setting,value
N#C[C@H]1[C@H](c2ccc(C#CC3CCCC3)cc2)[C@@H](CO)N1C(=O)Nc1ccc(F)cc1,AC50,[1],42.8 µM (active)
same,AC50,[2],7.21 µM (active)
same,AC50,Paired box protein Pax-8,5.59 µM (active)
same,AC50,[3],7.84 µM (active)
same,AC50,[4],29 µM (active)
same,AC50,[5],19.1 µM (active)
same,AC50,[6],20.4 µM (active)
same,AC50,[7],32.1 µM (active)
same,AC50,[8],27.2 µM (active)
COc1ccc(S(=O)(=O)Nc2ccc3c(c2)C(=O)N([C@H](C)CO)C[C@H](C)[C@@H](CN(C)S(=O)(=O)c2ccc(Cl)cc2)OCCCC[C@H](C)O3)cc1,AC50,[9],21.4 µM (active)
same,AC50,[1],16 µM (active)
same,AC50,[10],51.9 µM (active)
same,AC50,Paired box protein Pax-8,7.7 µM (active)
same,AC50,[11],24.8 µM (active)
same,AC50,[8],> 70 µM (inactive)
CCNC(=O)[C@@H]1[C@@H](CO)[C@@H]2Cn3c(ccc(/C=C/c4ccccc4)c3=O)[C@H]1N2C(=O)C1CCCC1,AC50,[12],9.24 µM (active)
COc1ccc(N(C)S(=O)(=O)c2cccc(C(=O)OC(C(=O)Nc3cc(C)cc(C)c3)c3ccccc3)c2)cc1 (centres undefined),IC50,[13],> 69.5 µM (inactive)
same,IC50,[14],> 69.5 µM (inactive)
O=S(=O)(c1cccc(F)c1)N1CC[C@H]2[C@H](CO)Nc3ccc(-c4cccc(F)c4)cc3[C@H]21,AC50,[15],41.9 µM (active)
same,AC50,[16],> 52 µM (inactive)
CCCN1CCc2c(sc(NC(=O)C3CCN(S(=O)(=O)c4cccs4)CC3)c2C(N)=O)C1,AC50,cells,5.17 µM (active)
O=C(Nc1ccc(N2CCOCC2)cc1)c1ccc(Cl)c(S(=O)(=O)N2CCCC2)c1,AC50,[17],2.65 µM (active)
same,AC50,[18],69.4 µM (active)
same,AC50,[19],22.3 µM (active)
same,AC50,[20],2.17 µM (active)
Cc1cc(C)cc(NS(=O)(=O)c2ccc(NC(=S)NC(=O)c3ccc(Br)o3)cc2)c1,IC50,[21],> 69.5 µM (inactive)
same,IC50,[22],11.7 µM (inactive)
CCC(=O)Nc1cc2nn(-c3ccccc3)nc2cc1Cl,AC50,[23],5.02 µM (active)
Cc1cccc(S(=O)(=O)N2C[C@@H]3N[C@H](C2)[C@H]3c2ccc(-c3ccncc3)cc2)c1,AC50,[24],> 39 µM (inactive)
same,AC50,[25],1.84 µM (active)
same,AC50,[26],2.12 µM (active)
same,AC50,[27],1.48 µM (active)
same,AC50,[28],41.5 µM (active)
same,AC50,[29],3.58 µM (active)
